Results on 32 molecules are retold here after patent US8710043B2, “TRPM8 antagonists and their use in treatments” (Amgen Inc., priority 2011, dated 2014).

The structures appear in SMILES notation.

The target of this experiment is T1, human TRPM8 (Homo sapiens, UniProt Q7Z2W7).
T1 construct: expressed in transfected cells; host or cells: Chinese hamster ovary (CHO) cells, T-REx tetracycline-inducible system, co-transfected with aequorin
T1 sequence (Q7Z2W7 whole entry): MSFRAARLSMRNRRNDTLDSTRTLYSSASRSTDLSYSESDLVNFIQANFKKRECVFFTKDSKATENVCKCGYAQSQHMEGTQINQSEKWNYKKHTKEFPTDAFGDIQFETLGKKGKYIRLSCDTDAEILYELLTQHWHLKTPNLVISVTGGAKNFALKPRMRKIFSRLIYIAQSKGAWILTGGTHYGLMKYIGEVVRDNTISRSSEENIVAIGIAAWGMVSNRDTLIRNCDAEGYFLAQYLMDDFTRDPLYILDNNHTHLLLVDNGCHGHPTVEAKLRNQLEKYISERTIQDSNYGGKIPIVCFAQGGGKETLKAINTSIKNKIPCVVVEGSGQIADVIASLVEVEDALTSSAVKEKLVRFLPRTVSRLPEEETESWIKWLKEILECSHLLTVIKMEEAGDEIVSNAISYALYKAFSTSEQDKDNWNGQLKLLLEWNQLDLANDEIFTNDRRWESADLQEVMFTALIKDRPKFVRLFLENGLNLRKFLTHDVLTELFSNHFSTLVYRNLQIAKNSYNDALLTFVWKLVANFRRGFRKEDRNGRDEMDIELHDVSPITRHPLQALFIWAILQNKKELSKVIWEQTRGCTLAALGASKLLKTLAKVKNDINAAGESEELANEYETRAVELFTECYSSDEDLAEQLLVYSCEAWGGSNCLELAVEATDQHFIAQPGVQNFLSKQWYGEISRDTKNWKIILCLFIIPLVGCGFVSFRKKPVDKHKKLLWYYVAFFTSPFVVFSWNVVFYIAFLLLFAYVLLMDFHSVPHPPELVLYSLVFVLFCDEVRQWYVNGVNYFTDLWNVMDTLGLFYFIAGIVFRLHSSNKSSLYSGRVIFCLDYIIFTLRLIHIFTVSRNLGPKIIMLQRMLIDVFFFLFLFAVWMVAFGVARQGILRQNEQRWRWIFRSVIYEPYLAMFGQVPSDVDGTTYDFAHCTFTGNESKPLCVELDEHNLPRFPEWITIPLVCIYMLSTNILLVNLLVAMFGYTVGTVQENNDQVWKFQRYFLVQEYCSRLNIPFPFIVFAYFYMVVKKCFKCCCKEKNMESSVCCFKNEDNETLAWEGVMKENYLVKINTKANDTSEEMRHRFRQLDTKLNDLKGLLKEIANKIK
Briefly: Luminescence readout assay for measuring intracellular calcium, icilin activation. Particulars: CHO cells expressing human TRPM8, aequorin luminescence, 1 μM icilin activation; read-out: hTRPM8 IC50. The experiment is classed as cell-based. The procedure, abridged:
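The read-out was luminescence reporting intracellular calcium, recorded by a CCD-based luminometer. Compounds were preincubated for 2.5 min before agonist challenge with 1 μM icilin. Human TRPM8 was expressed in a stable T-REx CHO line, induced with 0.5 μg/mL tetracycline the day before.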
For orientation: Calcium flux is commonly read through the fluorescence of an indicator in the cells.
As a reminder, the IC50 is the concentration that inhibits the measured activity by half. `O=C(N[C@@H](c1ccc(C(F)(F)F)cc1)c1ncccc1F)c1ccc2nnnn2c1` [Example 307, (S)-N-((3-fluoropyridin-2-yl)(4-(trifluoromethyl)phenyl)methyl)tetrazolo[1,5-a]pyridine-6-carboxamide]: the half-inhibitory concentration (IC50) came out at 0.0454 µM.
The result for `O=C(N[C@@H](c1ccc(C(F)(F)F)cc1)c1ncccc1F)c1n[nH]c2c1CCC2` [Example 321, (S)-N-((3-fluoropyridin-2-yl)(4-(trifluoromethyl)phenyl)methyl)-1,4,5,6-tetrahydrocyclopenta[c]pyrazole-3-carboxamide] reads 0.164 µM; that for `O=C(O)c1ccc(C(=O)N[C@@H](c2ccc(C(F)(F)F)cc2)c2ncccc2F)nc1` [Example 280, (S)-6-(((3-Fluoropyridin-2-yl)(4-(trifluoromethyl)phenyl)-methyl)carbamoyl)nicotinic Acid], 0.0221 µM.
Next, `O=C(N[C@@H](c1ccc(OC(F)(F)F)c(F)c1)c1ncccc1F)c1cc2[nH]c(=O)oc2cn1` [Example 437, (S)—N-((3-Fluoro-4-(trifluoromethoxy)phenyl)(3-fluoropyridin-2-yl)methyl)-2-oxo-1,2-dihydrooxazolo[5,4-c]pyridine-6-carboxamide]: 0.225 µM; `Cc1ccc(C(=O)N[C@@H](c2ccc(C(F)(F)F)cc2)c2ncccc2C(F)(F)F)cn1` [Example 40, (S)-6-methyl-N-((4-(trifluoromethyl)phenyl)(3-(trifluoromethyl)pyridin-2-yl)methyl)nicotinamide]: 0.0134 µM; `COC(=O)c1ccc(C(=O)N[C@@H](c2ccc(OC(F)(F)F)c(F)c2)c2ccccn2)nc1` [Example 406, (S)-methyl 6-(((3-fluoro-4-(trifluoromethoxy)phenyl)(pyridin-2-yl)methyl)carbamoyl)nicotinate]: 0.241 µM.
The result for `COc1ccc(C(NC(=O)c2ccc(=O)[nH]c2)c2ccc(OC(F)(F)F)c(F)c2)nc1` (centres unmarked) [Example 421] reads 0.611 µM; that for `Cn1cc(C(=O)N[C@@H](c2ccc(OC(F)(F)F)cc2)c2ccccn2)ccc1=O` [Example 378, (S)-1-methyl-6-oxo-N-(pyridin-2-yl(4-(trifluoromethoxy)phenyl)methyl)-1,6-dihydropyridine-3-carboxamide], 0.0503 µM; that for `O=C(N[C@@H](c1ccc(OC(F)(F)F)c(F)c1)c1ncccc1F)c1ccc(=O)[nH]n1` [Example 349, (S)-N-((3-fluoro-4-(trifluoromethoxy)phenyl)(3-fluoropyridin-2-yl)methyl)-6-oxo-1,6-dihydropyridazine-3-carboxamide], 0.0156 µM.
Consider `O=C(N[C@@H](c1ccc(C(F)(F)F)c(F)c1)c1ncccc1C(F)(F)F)[C@H]1CCCO1` [Example 123, (R)-N-((S)-(3-fluoro-4-(trifluoromethyl)phenyl)(3-(trifluoromethyl)pyridin-2-yl)methyl)THF-2-carboxamide], for which the IC50 came to 0.149 µM.
Next, `O=C(N[C@@H](c1ccc(OC(F)(F)F)c(F)c1)c1ccccn1)c1ccc2[nH]cnc2c1` [Example 393, (S)-N-((3-fluoro-4-(trifluoromethoxy)phenyl)(pyridin-2-yl)methyl)-1H-benzo[d]imidazole-5-carboxamide]: 0.0061 µM; `O=C(N[C@@H](c1ccc(F)cc1)c1ncccc1C(F)(F)F)c1ccccc1` [Example 126, (S)-N-((4-fluorophenyl)(3-(trifluoromethyl)pyridin-2-yl)methyl)benzamide]: 0.194 µM.
The result for `O=C(O)c1cccc(C(=O)N[C@@H](c2ccc(C(F)(F)F)cc2)c2ncccc2C(F)(F)F)c1` [Example 179, (S)-3-(((4-(trifluoromethyl)phenyl)(3-(trifluoromethyl)pyridin-2-yl)methyl)carbamoyl)benzoic acid] reads 0.0398 µM; that for `O=C(N[C@@H](c1ccc(C(F)(F)F)cc1)c1ncsc1Br)c1ccc2ncccc2c1` [Example 259, (S)-N-((5-bromothiazol-4-yl)(4-(trifluoromethyl)phenyl)methyl)quinoline-6-carboxamide 2,2,2-trifluoroacetate], 0.128 µM.
The result for `Cc1cccnc1[C@@H](NC(=O)c1ccc2c(c1)OCC(=O)N2)c1ccc(OC(F)(F)F)c(F)c1` [Example 357, (S)-N-((3-fluoro-4-(trifluoromethoxy)phenyl)(3-methylpyridin-2-yl)methyl)-3-oxo-3,4-dihydro-2H-benzo[b][1,4]oxazine-7-carboxamide] reads 0.0466 µM.
As for `Cc1cc([C@H](NC(=O)c2ccc(=O)[nH]c2)c2ncccc2F)ccc1OC(F)(F)F` [Example 381, (S)-N-((3-fluoropyridin-2-yl)(3-methyl-4-(trifluoromethoxy)phenyl)methyl)-6-oxo-1,6-dihydropyridine-3-carboxamide], the 50% inhibitory concentration (IC50) was determined as 0.0104 µM.
Regarding `Cc1ncsc1CCC(=O)N[C@@H](c1ccc(C(F)(F)F)cc1)c1ncccc1C(F)(F)F` [Example 145, (S)-3-(4-methylthiazol-5-yl)-N-((4-(trifluoromethyl)phenyl)(3-(trifluoromethyl)pyridin-2-yl)methyl)propanamide], the half-maximal inhibitory concentration (IC50) was 0.0852 µM.
Next, `O=C(N[C@@H](c1ccc(OC(F)(F)F)c(F)c1)c1ncccc1F)c1ccc(O)cn1` [Example 389, (S)-N-((3-fluoro-4-(trifluoromethoxy)phenyl)(3-fluoropyridin-2-yl)methyl)-5-hydroxypicolinamide 2,2,2-trifluoroacetate]: 0.0183 µM; `N#Cc1cccc(C(=O)N[C@@H](c2ccc(C(F)(F)F)cc2)c2ncccc2C(F)(F)F)c1` [Example 168, (S)-3-cyano-N-((4-(trifluoromethyl)phenyl)(3-(trifluoromethyl)pyridin-2-yl)methyl)be]: 0.0384 µM.
On to `O=C(N[C@@H](c1ccc(C(F)(F)F)cc1)c1ncccc1F)c1cnc(Cl)c(Br)c1` [Example 198, (S)-5-bromo-6-chloro-N-((3-fluoropyridin-2-yl)(4-(trifluoromethyl)phenyl)methyl)nicotinamide], for which the IC50 is 0.056 µM.
The result for `Cc1cccnc1[C@@H](NC(=O)c1ccc(=O)[nH]c1)c1ccc(OC(F)(F)F)cc1` [Example 359, (S)-N-((3-methylpyridin-2-yl)(4-(trifluoromethoxy)phenyl)methyl)-6-oxo-1,6-dihydropyridine-3-carboxamide] reads 0.0136 µM.
Next, `O=C(N[C@@H](c1ccc(C(F)(F)F)cc1)c1ncccc1C(F)(F)F)C1CCOC1` (stereo partly drawn) [Example 225, N-((S)-(4-(trifluoromethyl)phenyl)(3-(trifluoromethyl)pyridin-2-yl)methyl)THF-3-carboxamide]: 0.487 µM; `O=C(Cc1c[nH]cn1)N[C@@H](c1ccc(C(F)(F)F)cc1)c1ncccc1C(F)(F)F` [Example 158, (S)-2-(1H-imidazol-4-yl)-N-((4-(trifluoromethyl)phenyl)(3-(trifluoromethyl)pyridin-2-yl)methyl)acetamide]: 1.95 µM.
The result for `O=C(N[C@@H](c1ccc(C(F)(F)F)cc1)c1ncccc1F)c1ccc2nccnc2c1` [Example 170, (S)-N-((3-fluoropyridin-2-yl)(4-(trifluoromethyl)phenyl)methyl)quinoxaline-6-carboxamide] reads 0.0235 µM.
Turning to `O=C(N[C@@H](c1ccc(C(F)(F)F)cc1)c1ncccc1C(F)(F)F)c1ccn2ccnc2c1` [Example 87, (S)-N-((4-(trifluoromethyl)phenyl)(3-(trifluoromethyl)pyridin-2-yl)methyl)imidazo[1,2-a]pyridine-7-carboxamide], the IC50 came out at 0.0089 µM.
The result for `Cc1cccnc1[C@@H](NC(=O)c1ccc2c(c1)OCC(=O)N2)c1ccc(C(F)(F)F)cc1` [Example 85, (S)-N-((3-methylpyridin-2-yl)(4-(trifluoromethyl)phenyl)methyl)-3-oxo-3,4-dihydro-2H-benzo[b][1,4]oxazine-7-carboxamide] reads 0.0289 µM; that for `CCn1cc(C(=O)N[C@@H](c2ccc(OC(F)(F)F)cc2)c2ncccc2F)ccc1=O` [Example 255, (S)-1-ethyl-N-((3-fluoropyridin-2-yl)(4-(trifluoromethoxy)phenyl)methyl)-6-oxo-1,6-dihydropyridine-3-carboxamide], 0.0176 µM.
Next, `O=C(N[C@@H](c1ccc(C(F)(F)F)cc1)c1ncccc1C(F)(F)F)c1ccc2nccc(Cl)c2c1` [Example 116, (S)-4-chloro-N-((4-(trifluoromethyl)phenyl)(3-(trifluoromethyl)pyridin-2-yl)methyl)quinoline-6-carboxamide 2,2,2-trifluoroacetate]: 0.0429 µM; `O=C(N[C@@H](c1ccc(C(F)(F)F)cc1)c1ncccc1C(F)(F)F)c1ccoc1` [Example 199, (S)-N-((4-(trifluoromethyl)phenyl)(3-(trifluoromethyl)pyridin-2-yl)methyl)furan-3-carboxamide]: 0.0776 µM.
On to `O=C(N[C@@H](c1ccc(C(F)(F)F)cc1)c1ncccc1C(F)(F)F)c1cccc(C(=O)c2ccccc2)c1` [Example 246, (S)-3-benzoyl-N-((4-(trifluoromethyl)phenyl)(3-(trifluoromethyl)pyridin-2-yl)methyl)benzamide 2,2,2-trifluoroacetate], for which the 50% inhibitory concentration (IC50) is 0.21 µM.
The result for `O=C(N[C@@H](c1cc(F)cc(C(F)(F)F)c1)c1ncccc1F)c1ccc(=O)[nH]c1` [Example 327, (S)-N-((3-fluoro-5-(trifluoromethyl)phenyl)(3-fluoropyridin-2-yl)methyl)-6-oxo-1,6-dihydropyridine-3-carboxamide] reads 0.302 µM; that for `O=C(N[C@@H](c1ccc(C(F)(F)F)cc1)c1ncccc1C(F)(F)F)c1ccc2nccn2c1` [Example 254, (S)-N-((4-(trifluoromethyl)phenyl)(3-(trifluoromethyl)pyridin-2-yl)methyl)imidazo[1,2-a]pyridine-6-carboxamide 2,2,2-trifluoroacetate], 0.0118 µM.
